{"source": "patent US9604987B2", "about": "“Synthesis of autophagy inducing compound and the uses thereof” (Hong Kong Baptist University, priority 2012, dated 2017)", "key": {"[1]": {"tested_on": "L3 Drosophila larvae fat body", "assay": "LysoTracker Red staining of Drosophila L3 larvae fat body", "assay_type": "in vivo", "protocol": "Drosophila culture and drug feeding. Flies were raised at 25° C. on standard corn meal medium supplemented with dry yeast. Cory B and rapamycin were initially dissolved in DMSO then diluted in water to desired concentrations. The drug containing water was added into instant Drosophila food and mixed thoroughly. As the control, the same amount of DMSO was also mixed with instant Drosophila food. For the treatment, L3 larvae or adult flies were transferred to the drug-containing medium and incubated for indicated time.\nLysotracker staining and quantitative analysis of autophagic structures. L3 larvae were dissected using fine forceps under a dissecting microscope and inverted so that fat bodies were exposed to the incubating solution. The larvae carcasses were stained with 100 nM of LysoTracker red in PBS for 5 minutes at room temperature. After the incubation, the larvae carcasses were rinsed once in PBS and transferred to a glass slide with a drop of mounting medium on it. […] Fat body lobes were then covered with a cover slide and immediately observed under a standard fluorescence microscope. Quantitative analysis of lysotracker-positive spots was performed according to previous described protocol with minor revision. […] The numbers of lysotracker-positive spots were quantified from at least 20 randomly selected fluorescent image fields (4700 μm^2/field). […]"}, "PC12 cells": {"tested_on": "PC12 cells", "assay": "Western blot of autophagy marker LC3-II in PC12 cells", "assay_type": "cell-based, rat", "conditions": "PC12, 0-25 μM, 24 hours", "protocol": "Native and denatured PAGE and Western blotting analysis. Samples to be run under denaturing conditions were lysed with RIPA lysis buffer (150 mM NaCl, 50 mM Tris-HCl, 0.35% sodium deoxycholate, 1 mM EDTA, 1% NP40, 1 mM PMSF, 5 μg/ml aprotinin, 5 μg/ml leupeptin). Samples for native gels were lysed with detergent-free lysis buffer (50 mM Tris/HCl pH 7.4, 175 mM NaCl, 5 mM EDTA pH 8.0, 1 mM PMSF, 5 μg/ml aprotinin, 5 μg/ml leupeptin), and sheared 5 times through a 28-gauge needle followed by 2 times of sonication for 5 seconds according to previously described protocol. For denaturing, SDS-PAGE was performed using Tris-Glycine SDS running buffer and SDS sample buffer, and for native conditions, native-PAGE was run with detergent-free Tris-Glycine running buffer (BN2007, Invitrogen) and 4× native sample buffer (BN2003, Invitrogen) on a pre-casted native PAGE gel (BN1002BOX, Invitrogen). The proteins on the gels were then transferred to PVDF membrane (RPN303F, GE Healthcare) and processed for immunoblotting. Membranes were blocked with 5% non-fat milk and probed with the appropriate primary and secondary antibodies. The desired bands were visualized using the ECL kit (32106, Pierce). The band density was quantified using the ImageJ program and normalized to that of the control group. […]"}, "α-syn oligomers": {"tested_on": "α-syn oligomers", "assay": "BiFC-based cell model of α-syn oligomer clearance (flow cytometry)", "conditions": "25 μM, 24 hours", "protocol": "Second, the effect of Cory B on α-syn oligomers clearance is tested using a bimolecular fluorescence complementation (BiFC)-based cell model which enables visualization of α-syn oligomers. Two non-fluorescent fragments of GFP, GFP-N terminal fraction and GFP-C terminal fraction, are fused with α-syn protein; interaction of the two fragments reconstitutes the fluorophore (FIG. 5G). The presence of fluorescence signal indicates the formation of α-syn oligomers within cells. Mock transfected cells are used as blanks to gate the fluorescence-positive cells and signals stronger than 10^1 RFU are considered as positive α-syn oligomers formation. Cells are treated with 25 μM Cory B and/or 5 mM 3-MA for 24 hours and harvested for flow cytometry analysis."}, "Inducible PC12 cells": {"tested_on": "Inducible PC12 cells", "assay": "HMGB1 translocation and autophagy in alpha-synuclein inducible PC12 cells", "assay_type": "cell-based, rat", "conditions": "α-syn overexpression induced by Dox, 24 h", "protocol": "Inducible PC12 cells are treated with […] Dox for 24 h in the presence of Corynoxine B (Cory B), rapamycin (Rap), wortmannin (Wort) or chloroquine (CQ). The expressions of induced HA-α-syn, endogenous LC3-II and Beclin-1 are determined by Western blotting (FIG. 10A). The expression of HMGB1 in the cytosolic and nuclear fractions are determined by Western blotting (FIG. 10B). b-actin and Lamin B1 are used as relative loading controls. Data are presented as the mean±SD from three independent experiments. ^#p<0.05 vs. un-induced control; *p<0.05 vs. Dox treatment; **p<0.05 vs. Dox+Cory B treatment."}, "Tg2567 APP mice": {"tested_on": "Tg2567 APP mice", "assay": "Tg2567 APP mice treated intraperitoneally", "assay_type": "in vivo", "conditions": "20 mg/kg/d intraperitoneally, three months", "protocol": "N2a Swedish APP cells are incubated with different concentration of Cory and Cory B in the presence or absence of CQ and 3MA. […] Tg2567 APP mice, 3 months old JNPL P301 Tau mice and WT mice intraperitoneally are administrated with 20 mg/kg/d CoryB."}, "[2]": {"tested_on": "phosphorylated mTOR and P70S6K", "assay": "Western blot of mTOR pathway and other autophagy pathways in N2a cells", "assay_type": "cell-based, mouse", "protocol": "FIG. 7: Western blot analysis of expression level of phosphorylated mTOR (p-mTOR) or its substrate P70S6K (p-P70S6K) in N2a cells with treatment of 25 μM Cory B or 0.2 μM rapamycin for 6 hours (FIG. 7A); western blot analysis of Beclin 1 expression in N2a cells with non-target or Beclin 1-specific siRNA treatments followed by Cory B (FIG. 7B)\nTo elucidate the molecular mechanism of Cory B action, the classic autophagy controlling pathway, the mTOR pathway is first examined."}}, "data": [{"molecule": "CC[C@@H]1CN2CC[C@]3(C(=O)Nc4ccccc43)C2C[C@@H]1C(=COC)C(=O)OC", "note": "(some centres unmarked) [Cory B, Corynoxine B]", "values": [{"measurement": "LysoTracker Red-positive puncta in fat bodies", "setting": "[1]; fed 0.2 mg/ml, 6 hours", "value": "induces formation of LysoTracker Red-positive puncta"}, {"measurement": "LysoTracker Red puncta formation in presence of 3-MA", "setting": "[1]; with autophagy inhibitor 3-MA", "value": "blocked"}, {"measurement": "LC3-II levels", "setting": "PC12 cells", "value": "increases levels of LC3-II"}, {"measurement": "degradation of α-syn oligomers (fluorescence intensity)", "setting": "α-syn oligomers", "value": "promotes degradation of α-syn oligomers"}, {"measurement": "cytosolic translocation of HMGB1 and autophagy", "setting": "Inducible PC12 cells", "value": "restored the deficient cytosolic translocation of HMGB1 and autophagy"}, {"measurement": "Fl-APP/CTF", "setting": "Tg2567 APP mice", "value": "significantly decrease"}, {"measurement": "phosphorylated mTOR and p-P70S6K levels", "setting": "[2]; 25 μM Cory B or 0.2 μM rapamycin, 6 hours", "value": "neither phosphorylated mTOR nor its substrate P70S6K are affected"}, {"measurement": "AKT, AMPK, MEK/ERK, JNK, ER stress and calcium signaling pathways", "setting": "[2]; data not shown", "value": "none of the above mentioned pathways are altered"}]}]}
